US7109216B2 (priority 2001, dated 2006)
Where two headings read alike, the source gives them in different places.

Tests used:
[1] = target: T1, human cannabinoid CB1 receptor (Homo sapiens, UniProt P21554); experiment: Cannabinoid CB1 antagonistic activity, forskolin-induced cAMP accumulation in CHO cells; type: cell-based; design: expressed in transfected cells; host or cells: CHO cells
Description: The cannabinoid CB1 antagonistic activity of compounds of the invention was determined by functional studies using CHO cells in which human cannabinoid CB1 receptors were stably expressed. Adenylyl cyclase was stimulated using forskolin and measured by quantifying the amount of accumulated cyclic AMP. Concomitant activation of CB1 receptors by CB1 receptor agonists (e.g. CP-55,940 or (R)-WIN-55,212–2) can attenuate the forskolin-induced accumulation of cAMP in a concentration-dependent manner. This CB1 receptor-mediated response can be antagonized by CB1 receptor antagonists such as the compounds of the invention.

[2] = target: T1, human cannabinoid CB1 receptor; experiment: biochemical; type: binding; design: expressed in transfected cells; host or cells: Chinese hamster ovary (CHO) cells, membrane preparation; settings: [3H]CP-55,940 radioligand, CHO cell membranes stably transfected with human CB1
Description: After incubation of a freshly prepared cell membrane preparation with the [^3H]-ligand, with or without addition of compounds of the invention, separation of bound and free ligand was performed by filtration over glassfiber filters. Radioactivity on the filter was measured by liquid scintillation counting.

[3] = antagonism of CB1 agonist (e.g. CP-55,940 or (R)-WIN-55,212-2) effect on forskolin-induced cAMP accumulation, CHO cells expressing human CB1, read-out: hCB1 pA2 (converted)
[4] = antagonism of CB1 agonist (e.g. CP-55,940 or (R)-WIN-55,212-2) effect on forskolin-induced cAMP accumulation, CHO cells expressing human CB1

T1 sequence (P21554 whole entry): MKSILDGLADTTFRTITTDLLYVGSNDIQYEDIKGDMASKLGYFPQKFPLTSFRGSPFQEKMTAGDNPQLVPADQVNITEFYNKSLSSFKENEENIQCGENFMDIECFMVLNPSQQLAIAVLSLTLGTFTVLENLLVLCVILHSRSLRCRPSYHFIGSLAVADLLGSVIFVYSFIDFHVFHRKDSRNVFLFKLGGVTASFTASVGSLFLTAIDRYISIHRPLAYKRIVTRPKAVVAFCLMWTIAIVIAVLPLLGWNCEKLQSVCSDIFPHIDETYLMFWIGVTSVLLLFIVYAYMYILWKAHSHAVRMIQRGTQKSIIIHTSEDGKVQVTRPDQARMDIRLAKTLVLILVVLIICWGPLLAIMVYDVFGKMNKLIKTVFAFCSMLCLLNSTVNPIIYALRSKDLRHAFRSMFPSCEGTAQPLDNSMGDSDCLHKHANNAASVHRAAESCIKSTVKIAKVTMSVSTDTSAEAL

With `CN(Cc1ccccc1)C(=O)c1cn(-c2ccc(Cl)cc2)c(-c2ccc(Cl)cc2Cl)n1` [Example 6, N-(Benzyl)-1-(4-chlorophenyl)-2-(2,4-dichlorophenyl)-N-methyl-1H-imidazole-4-carboxamide] the Kb [1, 3] was 50.1 nM and the Ki ([2]; hCB1 pKi) was 63.1 nM.

Molecule `Cc1c(C(=O)NN2CCCCC2)nc(-c2ccc(Cl)cc2)n1-c1ccc(Cl)cc1Cl` [Example 10, 2-(4-chlorophenyl)-1-(2,4-dichlorophenyl)-5-methyl-N-(piperidin-1-yl)-1H-imidazole-4-carboxamide] has a Kb [1, 3] of 7.94 nM and a Ki ([2]; hCB1 pKi) of 316 nM.

Work on `Cc1c(C(=O)NN2CCCCC2)nc(-c2ccc(Cl)cc2Cl)n1-c1ccc(Cl)cc1` [Example 12, 1-(4-Chlorophenyl)-2-(2,4-dichlorophenyl)-5-methyl-N-(piperidin-1-yl)-1H-imidazole-4-carboxamide] yielded a Kb [1, 3] of 1.26 nM and a Ki ([2]; hCB1 pKi) of 12.6 nM.

`Cc1c(C(=O)NOC(C)(C)C)nc(-c2ccc(Cl)cc2Cl)n1-c1ccc(Cl)cc1` [Example 13, N-(t-Butoxy)-2-(2,4-dichlorophenyl)-1-(4-chlorophenyl)-5-methyl-1H-imidazole-4-carboxamide] showed a Kb [1, 3] of 3.16 nM and a Ki ([2]; hCB1 pKi) of 79.4 nM.

`CCc1c(C(=O)NOC(C)(C)C)nc(-c2ccc(Cl)cc2Cl)n1-c1ccc(Cl)cc1` [Example 14, N-(t-Butoxy)-1-(4-chlorophenyl)-2-(2,4-dichlorophenyl)-5-ethyl-1H-imidazole-4-carboxamide] showed a Kb [1, 3] of 0.126 nM and a Ki ([2]; hCB1 pKi) of 100 nM.

Work on `CCc1c(C(=O)NN2CCCCC2)nc(-c2ccc(Cl)cc2Cl)n1-c1ccc(Cl)cc1` [Example 15, 1-(4-Chlorophenyl)-2-(2,4-dichlorophenyl)-5-ethyl-N-(piperidin-1-yl)-1H-imidazole-4-carboxamide] yielded a Kb [1, 3] of 0.501 nM and a Ki ([2]; hCB1 pKi) of 10 nM.

In the case of `Cc1c(C(=O)NN2CCCCC2)nc(-c2ccc(Cl)cc2Cl)n1-c1ccc(Br)cc1` [Example 17, 1-(4-Bromophenyl)-2-(2,4-dichlorophenyl)-5-methyl-N-(piperidin-1-yl)-1H-imidazole-4-carboxamide], the melting point is reported as over 204 °C, the Kb [1, 3] is reported as 1.58 nM and the Ki ([2]; hCB1 pKi) is reported as 50.1 nM.

With `CCc1c(C(=O)NN2CCCCC2)nc(-c2ccc(Cl)cc2Cl)n1-c1ccc(Br)cc1` [Example 19, 1-(4-Bromophenyl)-2-(2,4-dichlorophenyl)-5-ethyl-N-(piperidin-1-yl)-1H-imidazole-4-carboxamide] the melting point was over 140 °C, the Kb [1, 3] was 1.26 nM and the Ki ([2]; hCB1 pKi) was 31.6 nM.

`CCc1c(C(=O)NC2CCCCC2)nc(-c2ccc(Cl)cc2Cl)n1-c1ccc(Br)cc1` [Example 20, 1-(4-Bromophenyl)-N-cyclohexyl-2-(2,4-dichlorophenyl)-5-ethyl-1H-imidazole-4-carboxamide] gave a melting point of over 135 °C, a Kb [1, 3] of under 1 nM and a Ki ([2]; hCB1 pKi) of 100 nM.

Molecule `CCCCCNC(=O)c1nc(-c2ccc(Cl)cc2Cl)n(-c2ccc(Br)cc2)c1CC` [Example 21, 1-(4-Bromophenyl)-2-(2,4-dichlorophenyl)-5-ethyl-N-(n-pentyl)-1H-imidazole-4-carboxamide] has a Kb [1, 3] of under 1 nM and a Ki ([2]; hCB1 pKi) of 31.6 nM.

Work on `O=C(NN1CCCCC1)c1cn(-c2ccc(Br)cc2)c(-c2ccc(Cl)cc2Cl)n1` [Example 22, 1-(4-bromophenyl)-2-(2,4-dichlorophenyl)-N-(piperidin-1-yl)-1H-imidazole-4-carboxamide] yielded a Kb [1] of 10 nM and a Ki ([2]; read-out: hCB1 pKi (converted)) of 398 nM.

For `CC(C)(C)ONC(=O)c1cn(-c2ccc(Br)cc2)c(-c2ccc(Cl)cc2Cl)n1` [Example 23, N-(t-Butoxy)-1-(4-bromophenyl)-2-(2,4-dichlorophenyl)-1H-imidazole-4-carboxamide], the Kb [1] was 1 nM and the Ki ([2]; read-out: hCB1 pKi (converted)) was 398 nM.

For `O=C(NN1CCCCCC1)c1cn(-c2ccc(Br)cc2)c(-c2ccc(Cl)cc2Cl)n1` [Example 25, N-(Azepan-1-yl)-1-(4-bromophenyl)-2-(2,4-dichlorophenyl)-1H-imidazole-4-carboxamide], the melting point was 201 to 204 °C, the Kb [1] was 10 nM and the Ki ([2]; read-out: hCB1 pKi (converted)) was 126 nM.

`O=C(NN1CC2CCCC2C1)c1cn(-c2ccc(Cl)cc2)c(-c2ccc(Cl)cc2Cl)n1` (stereo not drawn) [Example 26, 1-(4-Chlorophenyl)-2-(2,4-dichlorophenyl)-N-(hexahydrocyclopenta[c]pyrrol-2(1H)-yl)-1H-imidazole-4-carboxamide] showed a Kb [1, 3] of 10 nM and a Ki ([2]; hCB1 pKi) of 501 nM.

Work on `O=C(NCc1ccc(F)cc1)c1cn(-c2ccc(Cl)cc2)c(-c2ccc(Cl)cc2Cl)n1` [Example 27, 1-(4-Chlorophenyl)-2-(2,4-dichlorophenyl)-N-(4-fluorobenzyl)-1H-imidazole-4-carboxamide] yielded a Kb [1, 3] of 3.98 nM and a Ki ([2]; hCB1 pKi) of 63.1 nM.

In the case of `COc1cc(Cl)ccc1-c1nc(C(=O)NC2CCCCC2)cn1-c1ccc(Cl)cc1` [Example 29, 1-(4-Chlorophenyl)-N-cyclohexyl-2-(2-methoxy-4-chlorophenyl)-1H-imidazole-4-carboxamide], the melting point is reported as 177 to 179 °C, the Kb [1] is reported as 100 nM and the Ki ([2]; read-out: hCB1 pKi (converted)) is reported as 398 nM.

Molecule `COc1ccc(-n2cc(C(=O)NC3CCCCC3)nc2-c2ccc(Cl)cc2Cl)cc1` [Example 36, N-Cyclohexyl-2-(2,4-dichlorophenyl)-1-(4-methoxyphenyl)-1H-imidazole-4-carboxamide] has a melting point of 175 to 176 °C, a Kb [1, 3] of 6.31 nM and a Ki ([2]; hCB1 pKi) of 158 nM.

`O=C(NC1CCCCC1)c1cn(-c2ccc(Cl)cc2)c(-c2ccc(Cl)cc2C(F)(F)F)n1` [Example 38, 1-(4-Chlorophenyl)-N-cyclohexyl-2-(2-trifluoromethyl-4-chlorophenyl)-1H-imidazole-4-carboxamide] gave a melting point of 172 °C, a Kb [1] of 20 nM and a Ki ([2]; read-out: hCB1 pKi (converted)) of 200 nM.

`O=C(NN1CCCCC1)c1cn(-c2ccc(Cl)cc2)c(-c2ccc(Cl)cc2C(F)(F)F)n1` [Example 39, 1-(4-Chlorophenyl)-N-(piperidin-1-yl)-2-(2-trifluoromethyl-4-chlorophenyl)-1H-imidazole-4-carboxamide] gave a melting point of 219 °C, a Kb [1] of 50.1 nM and a Ki ([2]; read-out: hCB1 pKi (converted)) of 316 nM.

Work on `Cc1c(C(=O)NN2CCCCC2)nc(-c2ccc(Cl)cc2Cl)n1-c1ccc(C(F)(F)F)cc1` [Example 45, 2-(2,4-dichlorophenyl)-5-methyl-N-(piperidin-1-yl)-1-(4-(trifluoromethyl)phenyl)-1H-imidazole-4-carboxamide] yielded a Kb [1, 3] of 1.58 nM and a Ki ([2]; hCB1 pKi) of 15.8 nM.

In the case of `O=C(NN1CCCCC1)c1cn(-c2ccc(C(F)(F)F)cc2)c(-c2ccc(Cl)cc2Cl)n1` [Example 46, 2-(2,4-dichlorophenyl)-N-(piperidin-1-yl)-1-(4-(trifluoromethyl)phenyl)-1H-imidazole-4-carboxamide], the melting point is reported as > 200 °C (dec.), the Kb [1, 3] is reported as 6.31 nM and the Ki ([2]; hCB1 pKi) is reported as 50.1 nM.

In the case of `O=C(NC1CCCCC1)c1cn(-c2ccc(C(F)(F)F)cc2)c(-c2ccc(Cl)cc2Cl)n1` [Example 48, N-Cyclohexyl-2-(2,4-dichlorophenyl)-1-(4-(trifluoromethyl)phenyl)-1H-imidazole-4-carboxamide], the melting point is reported as 199 to 200 °C, the Kb [1] is reported as 0.251 nM and the Ki ([2]; read-out: hCB1 pKi (converted)) is reported as 316 nM.

Work on `Cc1c(C(=O)NN2CCOCC2)nc(-c2ccc(Cl)cc2Cl)n1-c1ccc(Cl)cn1` [Example 52, 1-(5-Chloropyridin-2-yl)-2-(2,4-dichlorophenyl)-5-methyl-N-(4-morpholinyl)-1H-imidazole-4-carboxamide] yielded a Kb [1] of 2.51 nM and a Ki ([2]; read-out: hCB1 pKi (converted)) of 501 nM.

In the case of `Cc1c(C(=O)NN2CCCCC2)nc(-c2ccc(Cl)cc2Cl)n1-c1ccc(F)cc1` [Example 62, 2-(2,4-Dichlorophenyl)-1-(4-fluorophenyl)-5-methyl-N-(piperidin-1-yl)-1H-imidazole-4-carboxamide], the melting point is reported as 223 to 224 °C, the “hCB1 pA2” value [1, 4] is reported as 7.7 and the Ki ([2]; hCB1 pKi) is reported as 31.6 nM.

With `COc1ccc(-n2c(-c3ccc(Cl)cc3Cl)nc(C(=O)NN3CCCCC3)c2C)cc1` [Example 63, 2-(2,4-Dichlorophenyl)-5-methyl-1-(4-methoxyphenyl)-N-(piperidin-1-yl)-1H-imidazole-4-carboxamide] the melting point was > 90 °C (dec.), the Kb [1, 3] was 1 nM and the Ki ([2]; hCB1 pKi) was 79.4 nM.

In the case of `Cc1c(C(=O)NN2CC3CCCC3C2)nc(-c2ccc(Cl)cc2Cl)n1-c1ccc(Cl)cc1` (stereo not drawn) [Example 81, 1-(4-Chlorophenyl)-2-(2,4-dichlorophenyl)-N-(hexahydrocyclopenta-[c]pyrrol-2(1H)-yl)-5-methyl-1H-imidazole-4-carboxamide], the melting point is reported as 143 to 146 °C, the “hCB1 pA2” value [1, 4] is reported as 9.8 and the Ki ([2]; hCB1 pKi) is reported as 31.6 nM.

`O=C(NN1CCCCC1)c1nc(-c2ccc(Cl)cc2Cl)n(-c2ccc(Br)cc2)c1Cl` [Example 109, 1-(4-bromophenyl)-5-chloro-2-(2,4-dichloro-phenyl)-N-(piperidin-1-yl)-1H-imidazole-4-carboxamide] gave a Kb [1, 3] of 1.58 nM and a Ki ([2]; hCB1 pKi) of 251 nM.

For `N#Cc1c(C(=O)NN2CCCCC2)nc(-c2ccc(Cl)cc2Cl)n1-c1ccc(Cl)cc1` [Example 110, 1-(4-chlorophenyl)-5-cyano-2-(2,4-dichlorophenyl)-N-(piperidin-1-yl)-1H-imidazole-4-carboxamide], the “hCB1 pA2” value [1, 4] was 8.6 and the Ki ([2]; hCB1 pKi) was 31.6 nM.
